Measured values from PubChem BioAssay AID330 (DTP/NCI, 2004).
Values joined by “and” are separate entries in the source; they are usually repeats but may differ in a detail not shown here. Identical values can stand only once. Inconclusive results and toxic doses are left out. The calls were made as follows: active = survival T/C of 150% or more; inactive = T/C below 125% in these data. Peptide text beside a SMILES is read from it. * marks the point of attachment. Cbz = O=C(OCc1ccccc1)*

System: P388 leukemia ip, CD2F1 mice, survival T/C
Assay: NCI In Vivo Anticancer Drug Screen. Data for tumor model P388 Leukemia (intraperitoneal) in CD2F1 (CDF1) mice
Conditions: endpoint: median survival time, higher = longer survival
In short: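 Mice carrying the transplanted tumor received test compound or vehicle. Survival was recorded in each group, and the value is the treated-group measurement divided by that of the vehicle-treated control group.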

[1] = dose: 12.5 mg/kg/injection, schedule: Q01DX009 (ip), vehicle: saline with Tween-80
[2] = dose: 25.0 mg/kg/injection, schedule: Q01DX009 (ip), vehicle: saline with Tween-80
[3] = dose: 100.0 mg/kg/injection, schedule: Q01DX009 (ip), vehicle: saline
[4] = dose: 50.0 mg/kg/injection, schedule: Q01DX005 (ip), vehicle: Klucel (hydroxypropylcellulose) (HPC)
[5] = dose: 100.0 mg/kg/injection, schedule: Q01DX005 (ip), vehicle: Klucel (hydroxypropylcellulose) (HPC)
[6] = dose: 200.0 mg/kg/injection, schedule: Q01DX005 (ip), vehicle: Klucel (hydroxypropylcellulose) (HPC)
[7] = dose: 60.0 mg/kg/injection, schedule: Q01DX005 (ip), vehicle: saline with Tween-80
[8] = dose: 120.0 mg/kg/injection, schedule: Q01DX005 (ip), vehicle: saline with Tween-80
[9] = dose: 240.0 mg/kg/injection, schedule: Q01DX005 (ip), vehicle: saline with Tween-80
[10] = dose: 100.0 mg/kg/injection, schedule: Q01DX009 (ip), vehicle: saline with Tween-80
[11] = dose: 200.0 mg/kg/injection, schedule: Q01DX009 (ip), vehicle: saline with Tween-80
[12] = dose: 50.0 mg/kg/injection, schedule: Q01DX009 (ip), vehicle: saline with Tween-80
[13] = dose: 100.0 mg/kg/injection, schedule: Q01DX009 (ip), vehicle: Klucel (hydroxypropylcellulose) (HPC)
[14] = dose: 200.0 mg/kg/injection, schedule: Q01DX009 (ip), vehicle: Klucel (hydroxypropylcellulose) (HPC)
[15] = dose: 400.0 mg/kg/injection, schedule: Q01DX009 (ip), vehicle: Klucel (hydroxypropylcellulose) (HPC)

Measured: T/C

N#CC(C#N)=NO (tested in a mixture with another compound)
inactive: dose: 6.25 mg/kg/injection, schedule: Q01DX009 (ip), vehicle: saline with Tween-80 100 % of control | [1] 98 % of control | [2] 100 % of control | [3] 86 % of control

CCOC(=O)C(Cc1c[nH]c2ccccc12)NC(=O)C(Cc1ccccc1)NC(=O)C(Cc1cnc[nH]1)NC(=O)OCc1ccccc1 (stereo not drawn) (Cbz-His-Phe-Trp-OEt; configuration not given here)
inactive: [4] 93 % of control | [5] 93 % of control | [6] 89 % of control

COc1ccc(C2OC3=C(Nc4ccc([N+](=O)[O-])cc4N3)C2=O)cc1 (configuration not stated)
inactive: dose: 0.93 mg/kg/injection, schedule: Q01DX005 (ip), vehicle: Klucel (hydroxypropylcellulose) (HPC) 89 % of control | dose: 1.87 mg/kg/injection, schedule: Q01DX005 (ip), vehicle: Klucel (hydroxypropylcellulose) (HPC) 93 % of control | dose: 3.75 mg/kg/injection, schedule: Q01DX005 (ip), vehicle: Klucel (hydroxypropylcellulose) (HPC) 92 % of control

CCOC(=O)C1=C(C)/C(=C\c2[nH]c(C)c(C(=O)OCC)c2C)N=C1C
inactive: [7] 103 % of control | [8] 94 % of control | [9] 96 % of control

CCOC(=O)C1CSC2(CCCC2)N1 (configuration not stated)
inactive: dose: 100.0 mg/kg/injection, schedule: Q04DX002 (ip), vehicle: saline with Tween-80 110 % of control | dose: 200.0 mg/kg/injection, schedule: Q04DX002 (ip), vehicle: saline with Tween-80 109 % of control | dose: 400.0 mg/kg/injection, schedule: Q04DX002 (ip), vehicle: saline with Tween-80 100 % of control

c1ccc2cc(-c3cc(-c4cc(-c5ccc6ccccc6c5)on4)no3)ccc2c1
inactive: dose: 60.0 mg/kg/injection, schedule: Q01DX005 (ip), vehicle: Klucel + Tween-80 100 % of control | dose: 120.0 mg/kg/injection, schedule: Q01DX005 (ip), vehicle: Klucel + Tween-80 95 % of control | dose: 240.0 mg/kg/injection, schedule: Q01DX005 (ip), vehicle: Klucel + Tween-80 91 % of control

Cc1cc2c(cc1C)[n+](=O)c1c(n2[O-])CCC1
inactive: [7] 100 % of control | [8] 95 % of control

O=C1C=CC(=Nc2cc(Cl)c(O)c(Cl)c2)C=C1
inactive: dose: 50.0 mg/kg/injection, schedule: Q01DX005 (ip), vehicle: saline with Tween-80 96 % of control | dose: 100.0 mg/kg/injection, schedule: Q01DX005 (ip), vehicle: saline with Tween-80 92 % of control | dose: 200.0 mg/kg/injection, schedule: Q01DX005 (ip), vehicle: saline with Tween-80 88 % of control

S=C([S-])N1CC[n+]2c(-c3ccccc3)csc21
inactive: dose: 50.0 mg/kg/injection, schedule: Q01DX009 (ip), vehicle: saline 101 % of control | [3] 100 % of control | dose: 200.0 mg/kg/injection, schedule: Q01DX009 (ip), vehicle: saline 91 % of control

C=CCOc1cc2c(cc1C/C=C/c1cc(OC)c(OC)c(OC)c1)OCO2
inactive: dose: 15.0 mg/kg/injection, schedule: Q01DX005 (ip), vehicle: saline with Tween-80 101 % of control | dose: 30.0 mg/kg/injection, schedule: Q01DX005 (ip), vehicle: saline with Tween-80 104 % of control | [7] 104 % of control and 89 % of control

OC1(c2ccccc2)CSC2=Nc3ccccc3C3CCN1N23 (configuration not stated)
inactive: [1] 108 % of control and 87 % of control | [10] 122 % of control and 95 % of control | [11] 99 % of control

COc1ccc(-c2sc(/N=C/c3ccc(N(C)CCC#N)cc3)c(C#N)c2C)cc1OC
inactive: dose: 3.13 mg/kg/injection, schedule: Q01DX009 (ip), vehicle: Klucel (hydroxypropylcellulose) (HPC) 89 % of control | dose: 6.25 mg/kg/injection, schedule: Q01DX009 (ip), vehicle: Klucel (hydroxypropylcellulose) (HPC) 91 % of control | dose: 12.5 mg/kg/injection, schedule: Q01DX009 (ip), vehicle: Klucel (hydroxypropylcellulose) (HPC) 91 % of control | dose: 25.0 mg/kg/injection, schedule: Q01DX009 (ip), vehicle: Klucel (hydroxypropylcellulose) (HPC) 90 % of control

CC(C)C(=O)CC1(O)C(=O)Nc2ccc([N+](=O)[O-])cc21 (configuration not stated)
inactive: [7] 101 % of control | [8] 93 % of control | [9] 91 % of control

COc1ccc2c(c1)[C@H]1[C@H]([C@H]3O[C@@H]1c1ccccc13)S(=O)N2 (some centres not stated)
inactive: [4] 95 % of control | [5] 96 % of control | [6] 92 % of control

O=C(/C=C/c1ccco1)c1ccc(O)c(C(=O)O)c1
inactive: [2] 99 % of control | [12] 105 % of control | [10] 102 % of control

CC1=CCCC1C1C=CCC1 (configuration not stated) (tested in a mixture with another compound)
inactive: [2] 102 % of control | [12] 103 % of control and 105 % of control | [10] 116 % of control

N#CCCSc1nnc(SCCC#N)s1
inactive: dose: 50.0 mg/kg/injection, schedule: Q01DX009 (ip), vehicle: Klucel (hydroxypropylcellulose) (HPC) 92 % of control | [13] 101 % of control | [14] 94 % of control | [15] 90 % of control

c1ccc2c3c([nH]c2c1)CCCCC3
inactive: [2] 96 % of control | [12] 109 % of control | [10] 106 % of control | [11] 118 % of control

CC(NC(=O)C(Cc1ccccc1)NC(=O)c1ccc[n+](Cc2ccccc2)c1)C(N)=O (configuration not stated)
inactive: dose: 60.0 mg/kg/injection, schedule: Q01DX005 (ip), vehicle: saline 97 % of control | dose: 120.0 mg/kg/injection, schedule: Q01DX005 (ip), vehicle: saline 93 % of control

c1ccc(N(c2ccccc2)c2nnnn2-c2ccccc2)cc1
inactive: [2] 98 % of control | [12] 94 % of control | [10] 89 % of control

CC(C)(C)C(=O)CC(=O)C(F)(F)C(F)(F)C(F)(F)F.CC(C)(C)C(=O)CC(=O)C(F)(F)C(F)(F)C(F)(F)F.CC(C)(C)C(=O)CC(=O)C(F)(F)C(F)(F)C(F)(F)F.[Er]
inactive: [13] 97 % of control | [14] 95 % of control | [15] 112 % of control

C=C(C)C1CCC2(C1)C(C)=CCCC2C (configuration not stated)
inactive: dose: 12.5 mg/kg/injection, schedule: Q01DX005 (ip), vehicle: saline 107 % of control | dose: 25.0 mg/kg/injection, schedule: Q01DX005 (ip), vehicle: saline 99 % of control | dose: 50.0 mg/kg/injection, schedule: Q01DX005 (ip), vehicle: saline 108 % of control | dose: 100.0 mg/kg/injection, schedule: Q01DX005 (ip), vehicle: saline 100 % of control | dose: 200.0 mg/kg/injection, schedule: Q01DX005 (ip), vehicle: saline 99 % of control

COc1ccc(C2=C(Cl)C(=O)N(c3cccc(Cl)c3)C(=O)C2(Cl)Cl)cc1
inactive: dose: 100.0 mg/kg/injection, schedule: Q04DX002 (ip), vehicle: Klucel (hydroxypropylcellulose) (HPC) 100 % of control and 86 % of control (2×) | dose: 200.0 mg/kg/injection, schedule: Q04DX002 (ip), vehicle: Klucel (hydroxypropylcellulose) (HPC) 104 % of control and 91 % of control and 97 % of control | dose: 400.0 mg/kg/injection, schedule: Q04DX002 (ip), vehicle: Klucel (hydroxypropylcellulose) (HPC) 100 % of control and 122 % of control and 90 % of control | dose: 600.0 mg/kg/injection, schedule: Q04DX002 (ip), vehicle: Klucel (hydroxypropylcellulose) (HPC) 98 % of control and 109 % of control

Cc1cc(O)cc(=O)n1CCc1ccccc1
inactive: dose: 60.0 mg/kg/injection, schedule: Q01DX005 (ip), vehicle: Klucel (hydroxypropylcellulose) (HPC) 88 % of control | dose: 120.0 mg/kg/injection, schedule: Q01DX005 (ip), vehicle: Klucel (hydroxypropylcellulose) (HPC) 94 % of control | dose: 240.0 mg/kg/injection, schedule: Q01DX005 (ip), vehicle: Klucel (hydroxypropylcellulose) (HPC) 96 % of control
